Results as given in patent US4558049A, “Antipsycotic benzoxazines” (Farmitalia Carlo Erba S.p.A., priority 1982, dated 1985).
Read-outs that look alike come from different tables or passages of the source.

What was measured:
[1] = test system: neuromuscular coordination in the rat; test: Rotarod test (neuromuscular coordination in the rat); assay type: in vivo; conditions: p.o.
[2] = test system: conditioned Avoidance Response in the rat; test: C.A.R. test (interference with conditioned Avoidance Response in the rat); assay type: in vivo; conditions: p.o.
[3] = test system: spontaneous activity in mice; test: Reduction of spontaneous activity in mice (Irwin technique); conditions: p.o.
[4] = test system: rats with 6-OHDA induced unilateral lesions of the dopaminergic nigrostriatal pathway; test: Turning-behaviour (antagonism to rotational behaviour by dopaminergic agents in rats with 6-OHDA induced unilateral lesions); assay type: in vivo; conditions: rat, p.o.
[5] = LD50 / acute toxicity in mice; conditions: mouse, in vivo, po, approximate LD50
catalepsy in rats = test: Catalepsy induction in rats; assay type: in vivo; conditions: rat, p.o.
[6] = Reduction of body temperature in mice (Irwin technique); conditions: p.o.
[7] = test system: apomorphine-induced climbing behaviour in mice; test: Apomorphine antagonism in mice (apomorphine-induced climbing behaviour, Protais et al.); assay type: in vivo; conditions: Mus musculus, po
[8] = mouse, in vivo, po
[9] = test system: spontaneous activity in mice; conditions: mouse, in vivo, po

Row | SMILES | Min. active dose in Rotarod test [1] [mg/kg p.o.] | Min. active dose in C.A.R. test [2] [mg/kg p.o.] | Reduction of spontaneous activity in mice (min. active dose) [3] [mg/kg p.o.] | Min. active dose in Turning-behaviour [4] [mg/kg p.o.] | LD50 [5] [mg/kg] | Min. active dose in Catalepsy induction (catalepsy in rats) [mg/kg p.o.] | Reduction of body temperature in mice (min. active dose) [6] [mg/kg p.o.] | ED50 [7] [mg/kg] | Reduction of body temperature in mice (min. active dose) [8] [mg/kg p.o.] | Reduction of spontaneous activity in mice (min. active dose) [9] [mg/kg p.o.]
1 | O=C1Nc2ccc(Br)cc2C2(CCN(CCCC(=O)c3ccc(F)cc3)CC2)O1 [Example 1, 1'-[3-(4-Fluorobenzoyl)propyl]spiro-(3,1-benzoxazine-6-bromo-4(2H)4'-piperidin)-2-one] | > 50 | 25 | 12.5 | > 20 | > 800 | > 200 | 100 | 1.7 | – | –
2 | O=C1Nc2ccc([N+](=O)[O-])cc2C2(CCN(CCCC(=O)c3ccc(F)cc3)CC2)O1 [Example 3, 1'-[3-(4-fluorobenzoyl)propyl]spiro-(3,1-benzoxazine-6-nitro-4(2H)4'-piperidin)-2-one] | 50 | 20 | 15 | > 15 | > 800 | 200 | 110 | 2.7 | – | –
3 | O=C(CCCN1CCC(O)(c2ccc(Cl)cc2)CC1)c1ccc(F)cc1 [Haloperidol, haloperidol, reference compound] | 0.5 | 0.5 | – | 0.5 | ~75 | 0.5 | – | 0.2 | 3.12 | 0.78
